Legend:
Assay type in all cases: in vivo
Humulus scandens [1] = test: Herbicidal activity test for indoor pre-emergence soil treatment; conditions: 150 g a.i./ha, visual inspection 21 days after treatment
Method in brief: (§1)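 Compounds were formulated as 10% emulsifiable concentrates and sprayed onto the soil 24 h after sowing, at 150 g(a.i.)/ha. Soil was sandy loam (≤2% organic matter), with seeds under 0.5–2.0 cm cover, per NY/T 1155.3-2006. Visual 1–9 ratings relative to blank control were made after 21 days.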

Broadleaf weed = test: Post-emergence herbicidal activity test in a paddy field; parameters: key: level scale; higher level = more weed left vs blank control; conditions: 150 g a.i./ha (penoxsulam control 250 g(a.i.)/h)
Method in brief: (§2)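 Efficacy was visually estimated 15 and 30 days after spraying, grading weed coverage relative to an untreated neighbouring plot (level 2 = 0 to 2.5%, level 9 = 67.6 to 100%). Treatments were 150 g(a.i.)/ha from 10% emulsifiable concentrates applied at the 4-5 leaf rice stage, four repeats of 50 m^2 each.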

Cyperaceae = test: as above; parameters: key: level scale; higher level = more weed left vs blank control; conditions: 150 g a.i./ha (penoxsulam control 250 g(a.i.)/h)
Method in brief: as §2

Gramineae = test: as above; parameters: key: level scale; higher level = more weed left vs blank control; conditions: 150 g a.i./ha (penoxsulam control 250 g(a.i.)/h)
Method in brief: as §2

Piemarker [2] = test: Herbicidal activity test for indoor pre-emergence soil treatment; parameters: key: level 1-9; higher = more weed remaining vs blank control; conditions: 150 g a.i./ha, visual inspection 21 days after treatment
Method in brief: as §1

Barnyard grass [3] = test: as above; parameters: key: level 1-9; higher = more weed remaining vs blank control; conditions: 150 g a.i./ha, visual inspection 21 days after treatment
Method in brief: as §1

green bristlegrass [4] = test: as above; parameters: key: level 1-9; higher = more weed remaining vs blank control; conditions: 150 g a.i./ha, visual inspection 21 days after treatment
Method in brief: as §1

Digitaria sanguinalis [5] = test: Field test for weed control in a corn field; conditions: 150 g a.i./ha, after treatment
Method in brief: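 Field trial in a corn field following GB/T 17980.42-2000. Test compounds were formulated as 10% emulsifiable concentrates, diluted in water and sprayed post-emergence at 150 g(a.i.)/ha when corn had 2 to 5 leaves, with 4 replicates on 20 m^2 plots. Control of Digitaria sanguinalis was scored on a 1-9 scale based on weed damage relative to the untreated blank area.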

goosegrass = test: Field test for weed control in a corn field; conditions: 150 g a.i./ha, after treatment
Method in brief: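 In this field trial in corn, run per GB/T 17980.42-2000, test agents prepared as 10% emulsifiable concentrates were applied in water as sprays at 150 g(a.i.)/ha at the 2- to 5-leaf corn stage. Each treatment covered 20 m^2 and was repeated 4 times. Goosegrass control was scored 1-9 relative to weed remaining in blank control areas.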

Amaranthus retroflexus [6] = test: Field test for weed control in a corn field; conditions: 150 g a.i./ha, 30 days after treatment
Method in brief: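 Post-emergence control of Amaranthus retroflexus was assessed in corn plots using the GB/T 17980.42-2000 method. Emulsifiable concentrates (10%) in water were applied by spraying at the 2- to 5-leaf crop stage on 20 m^2 plots, four replicates each, alongside a mesotrione 25% oil dispersion reference. Herbicidal activity was scored on 1-9 levels by weed amount relative to blank control areas.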

Convolvulus arvensis = test: Field test for weed control in a corn field; conditions: 150 g a.i./ha, after treatment
Method in brief: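 Post-emergence herbicidal activity on Convolvulus arvensis was scored in a corn field on a 1-9 scale, based on symptoms and damage severity. Each level corresponds to the weed remaining as a percentage of the blank control area. Sprays of 10% emulsifiable concentrate at 150 g(a.i.)/ha went on at the corn 2–5 leaf stage, with four replicates of 20 m^2 per treatment.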

Acalypha australis = test: Field test for weed control in a corn field; conditions: 150 g a.i./ha, after treatment
Method in brief: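 Herbicidal activity against weeds was assessed in corn plots by the GB/T 17980.42-2000 method. Corn at the 2–5 leaf stage received water sprays of 10% emulsifiable concentrates at 150 g(a.i.)/ha, four repeats per treatment over 20 m^2. A 25% mesotrione oil dispersion was the reference. Damage symptoms and severity were rated on levels 1-9 relative to weeds in the blank control area.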

Barnyard grass [7] = test: Field test for weed control in a corn field; conditions: 150 g a.i./ha, 30 days after treatment
Method in brief: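 Herbicidal activity against barnyard grass was assessed in corn field plots of 20 m^2, with four replicates per treatment. Compounds were applied as water-diluted 10% emulsifiable concentrates at 150 g(a.i.)/ha at the 2-5 leaf corn stage, with 25% mesotrione oil dispersion as the reference agent. Damage was scored on a 1-9 scale against untreated blank plots.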

Portulaca oleracea = test: Field test for weed control in a corn field; conditions: 150 g a.i./ha, after treatment
Method in brief: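 Post-emergence weed control was evaluated in a corn field by the GB/T 17980.42-2000 method. Emulsifiable concentrates (10%) in water were applied as sprays at 150 g(a.i.)/ha at the 2-5 leaf corn stage, in four replicate 20 m^2 plots. A 25% mesotrione oil dispersion served as control agent. Effects were graded 1-9 relative to weed remaining in blank control areas.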

green bristlegrass [8] = test: Field test for weed control in a corn field; conditions: 150 g a.i./ha, after treatment
Method in brief: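 Herbicidal activity against green bristlegrass was assessed in corn field plots of 20 m^2 per GB/T 17980.42-2000. Test agents, formulated as 10% emulsifiable concentrates, were applied in water at 150 g(a.i.)/ha at the corn 2 leaves to 5 leaves stage, repeated 4 times. A 25% mesotrione oil dispersion served as the control agent, and weed damage was rated on levels 1-9.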

Chenopodium album = test: Field test for weed control in a corn field; conditions: 150 g a.i./ha, after treatment
Method in brief: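 Field weed-control testing in corn, run per GB/T 17980.42-2000, scored Chenopodium album on a 1-9 level scale, where each level matches a percentage range of weed remaining relative to the blank control area. Sprays of 10% emulsifiable concentrates in water delivered 150 g(a.i.)/ha at the corn 2-leaf to 5-leaf stage on 20 m^2 plots, four replicates each. Mesotrione 25% oil dispersion served as reference.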

Solanum nigrum = test: Field test for weed control in a corn field; conditions: 150 g a.i./ha, 30 days after treatment
Method in brief: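 In a corn field trial based on GB/T 17980.42-2000, 10% emulsifiable concentrates diluted in water were sprayed at 150 g(a.i.)/ha at the 2 to 5 leaf stage of corn. Each treatment used 20 m^2 plots and was repeated 4 times, with 25% mesotrione oil dispersion as the reference agent. Solanum nigrum damage was scored on a 1-9 scale against blank control plots.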

nutgrass flatsedge = test: Field test for weed control in a corn field; conditions: 150 g a.i./ha, after treatment
Method in brief: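 Herbicidal effect on nutgrass flatsedge was measured in a field planted with corn, using the GB/T 17980.42-2000 method. Emulsifiable concentrates (10%) in water were sprayed at 150 g(a.i.)/ha during the 2-leaf to 5-leaf corn stage, on 20 m^2 plots repeated 4 times. 25% mesotrione oil dispersion was the control agent. Activity was scored from 1 to 9 by weed remaining relative to blank control plots.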

Digitaria sanguinalis [9] = test: Herbicidal activity test for indoor pre-emergence soil treatment; parameters: key: 1-9 levels; higher = more weed remaining vs blank control; conditions: 150 g a.i./ha, visual inspection 21 days after treatment
Method in brief: as §1

Amaranthus retroflexus [10] = test: as above; parameters: key: 1-9 levels; higher = more weed remaining vs blank control; conditions: 150 g a.i./ha, visual inspection 21 days after treatment
Method in brief: as §1

Piemarker [11] = test: Herbicidal activity test for indoor post-emergence spraying on stems and leaves; parameters: key: grade level by weed remaining vs blank control, e.g. 5 = 10.1-15%; conditions: 150 g a.i./ha, visual inspection 21 days after treatment
Method in brief: (§3)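 Weeds were grown in a greenhouse from seed and treated by foliar spraying after emergence, per the NY/T 1155.4-2006 method. Visual grading at 21 days: each level reflects the share of weed remaining versus the untreated blank control area.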

Digitaria sanguinalis [12] = test: as above; parameters: key: grade level by weed remaining vs blank control, e.g. 5 = 10.1-15%; conditions: 150 g a.i./ha, visual inspection 21 days after treatment
Method in brief: as §3

Amaranthus retroflexus [13] = test: as above; parameters: key: grade level by weed remaining vs blank control, e.g. 5 = 10.1-15%; conditions: 150 g a.i./ha, visual inspection 21 days after treatment
Method in brief: as §3

Barnyard grass [14] = test: as above; parameters: key: grade level by weed remaining vs blank control, e.g. 5 = 10.1-15%; conditions: 150 g a.i./ha, visual inspection 21 days after treatment
Method in brief: as §3

green bristlegrass [15] = test: as above; parameters: key: grade level by weed remaining vs blank control, e.g. 5 = 10.1-15%; conditions: 150 g a.i./ha, visual inspection 21 days after treatment
Method in brief: as §3

Humulus scandens [16] = test: as above; parameters: key: grade level by weed remaining vs blank control, e.g. 5 = 10.1-15%; conditions: 150 g a.i./ha, visual inspection 21 days after treatment
Method in brief: as §3

Structure (SMILES) | Herbicidal Activity Humulus scandens (Humulus scandens [1]) | Herbicidal activity 15 days after treatment Broadleaf weed (Broadleaf weed) | Herbicidal activity 30 days after treatment Broadleaf weed (Broadleaf weed) | Herbicidal activity 15 days after treatment Cyperaceae (Cyperaceae) | Herbicidal activity 30 days after treatment Cyperaceae (Cyperaceae) | Herbicidal activity 15 days after treatment Gramineae (Gramineae) | Herbicidal activity 30 days after treatment Gramineae (Gramineae) | Herbicidal Activity Piemarker (Piemarker [2]) | Herbicidal Activity Barnyard grass (Barnyard grass [3]) | Herbicidal Activity Green bristlegrass (green bristlegrass [4]) | Post-emergence weed control effect, Digitaria sanguinalis (Digitaria sanguinalis [5]) | Post-emergence weed control effect, Goose grass (goosegrass) | Post-emergence weed control effect, Amaranthus retroflexus (Amaranthus retroflexus [6]) | Post-emergence weed control effect, Convolvulus arvensis (Convolvulus arvensis) | Post-emergence weed control effect, Acalypha australis (Acalypha australis) | Post-emergence weed control effect, Barnyard grass (Barnyard grass [7]) | Post-emergence weed control effect, Portulaca oleracea (Portulaca oleracea) | Post-emergence weed control effect, Green bristlegrass (green bristlegrass [8]) | Post-emergence weed control effect, Chenopodium album (Chenopodium album) | Post-emergence weed control effect, Solanum nigrum (Solanum nigrum) | other results
Cc1cccc(C(=O)NCc2cccc(F)c2)n1 [Compound B22] | 2 (equivalent to 0 to 2.5% of the weed in the blank control area) | 1 | 1 | 1 | 1 | 1 | 1 | 1 | 1 | 1 | 2 (equivalent to 0 to 2.5% of the weed in the blank control area) | 2 (equivalent to 0 to 2.5% of the weed in the blank control area) | 1 | 1 | 1 | 1 | 1 | 1 | 1 | 2 (equivalent to 0 to 2.5% of the weed in the blank control area) | Post-emergence weed control effect, Nutgrass flatsedge (nutgrass flatsedge): 2 (equivalent to 0 to 2.5% of the weed in the blank control area); Herbicidal Activity Digitaria sanguinalis (Digitaria sanguinalis [9]): 1; Herbicidal Activity Amaranthus retroflexus (Amaranthus retroflexus [10]): 1; Herbicidal Activity Piemarker (Piemarker [11]): 1; Herbicidal Activity Digitaria sanguinalis (Digitaria sanguinalis [12]): 1; Herbicidal Activity Amaranthus retroflexus (Amaranthus retroflexus [13]): 1; Herbicidal Activity Barnyard grass (Barnyard grass [14]): 1; Herbicidal Activity Green bristlegrass (green bristlegrass [15]): 1; Herbicidal Activity Humulus scandens (Humulus scandens [16]): 1
Cc1ccc(CNC(=O)c2cccc(C)c2)cc1 [Compound B15] | 3 (equivalent to 2.6 to 5% of the weed in the blank control area) | 1 | 1 | 1 | 2 (equivalent to 0 to 2.5% of the weed in the blank control area) | 2 (equivalent to 0 to 2.5% of the weed in the blank control area) | 1 | 1 | 1 | 2 (equivalent to 0 to 2.5% of the weed in the blank control area) | 2 (equivalent to 0 to 2.5% of the weed in the blank control area) | 2 (equivalent to 0 to 2.5% of the weed in the blank control area) | 1 | 2 (equivalent to 0 to 2.5% of the weed in the blank control area) | 1 | 1 | 1 | 2 (equivalent to 0 to 2.5% of the weed in the blank control area) | 1 | 1 | Post-emergence weed control effect, Nutgrass flatsedge (nutgrass flatsedge): 2 (equivalent to 0 to 2.5% of the weed in the blank control area); Herbicidal Activity Digitaria sanguinalis (Digitaria sanguinalis [9]): 1; Herbicidal Activity Amaranthus retroflexus (Amaranthus retroflexus [10]): 2 (equivalent to 0 to 2.5% of the weed in the blank control area); Herbicidal Activity Piemarker (Piemarker [11]): 1; Herbicidal Activity Digitaria sanguinalis (Digitaria sanguinalis [12]): 1; Herbicidal Activity Amaranthus retroflexus (Amaranthus retroflexus [13]): 1; Herbicidal Activity Barnyard grass (Barnyard grass [14]): 1; Herbicidal Activity Green bristlegrass (green bristlegrass [15]): 1; Herbicidal Activity Humulus scandens (Humulus scandens [16]): 1

From patent US20220330549A1, “USE OF N-BENZYLBENZAMIDE-BASED COMPOUND AS HERBICIDE” (Northwest A&F University, priority 2020, published 2022)
